Measured values taken from ChEMBL document CHEMBL5523692, “Discovery of novel biaryl benzoxazepinones as dual-mode receptor-interacting protein kinase-1 (RIPK1) inhibitors” (Bioorg Med Chem, 2024).

How the values were obtained:
HT-29 = experiment: Anti-necroptic activity against human HT-29 cells assessed as cell viability pretreated with compound followed by TNF-alpha/Smac mimetic/Z-VAD-FMK stimulation for 16 hrs by Cell Titer Glo assay; format: functional, cell-based
[1] = Cytotoxicity against human HT-29 cells by Cell Titer Glo assay; format: toxicity, cell-based
Mus musculus = experiment: Anti-necroptic activity in TNF-alpha/Z-VAD-FMK-induced SIRS C57BL/6J mouse model assessed as survival rate at 2.5 mg/kg, po pre-administered via gavage for 1 hr followed by […] of Z-VAD-FMK stimulation for 15 mins and subsequent TNF-alpha stimulation for 45 mins and re-current […] of Z-VAD-FMK stimulation and measured after 60 hrs relative to control; format: functional; settings: 62 h, time 3720 min

CN1C(=O)[C@@H](NC(=O)c2n[nH]c(Cc3ccccc3)n2)COc2ccc(-c3cncnc3)cc21
EC50 (HT-29): 0.0058 µM | CC50 [1]: > 100 µM

CN1C(=O)[C@@H](NC(=O)c2n[nH]c(Cc3ccccc3)n2)COc2ccc(-c3ccccc3F)cc21
EC50 (HT-29): 0.0076 µM | CC50 [1]: > 100 µM

CN1C(=O)[C@@H](NC(=O)c2n[nH]c(Cc3ccccc3)n2)COc2ccc(-c3ccc(O)cc3)cc21
EC50 (HT-29): 0.0299 µM | CC50 [1]: > 100 µM

CN1C(=O)[C@@H](NC(=O)c2n[nH]c(Cc3ccccc3)n2)COc2ccc(-c3ccc(-c4ccccc4)cc3)cc21
EC50 (HT-29): 0.0329 µM | CC50 [1]: > 100 µM

CN1C(=O)[C@@H](NC(=O)c2n[nH]c(Cc3ccccc3)n2)COc2ccc(-c3ccc(F)cc3)cc21
EC50 (HT-29): 0.0098 µM | CC50 [1]: > 100 µM

CN1C(=O)[C@@H](NC(=O)c2n[nH]c(Cc3ccccc3)n2)COc2ccc(-c3cccc(O)c3)cc21
EC50 (HT-29): 0.0117 µM | CC50 [1]: > 100 µM

CN1C(=O)[C@@H](NC(=O)c2nnc(Cc3ccccc3)[nH]2)COc2ccccc21 [GSK2982772]
EC50 (HT-29): 0.0029 µM | survival at 2.5 mg/kg (Mus musculus): 50% | CC50 [1]: > 100 µM

CN1C(=O)[C@@H](NC(=O)c2n[nH]c(Cc3ccccc3)n2)COc2ccc(-c3ccccc3O)cc21
EC50 (HT-29): 0.06 µM | CC50 [1]: > 100 µM

Cc1cccc(C)c1-c1ccc2c(c1)N(C)C(=O)[C@@H](NC(=O)c1n[nH]c(Cc3ccccc3)n1)CO2
EC50 (HT-29): > 0.1 µM | CC50 [1]: > 100 µM

CN1C(=O)[C@@H](NC(=O)c2n[nH]c(Cc3ccccc3)n2)COc2ccc(-c3ccncc3)cc21
EC50 (HT-29): 0.0033 µM | CC50 [1]: > 100 µM

COc1ccc(-c2ccc3c(c2)N(C)C(=O)[C@@H](NC(=O)c2n[nH]c(Cc4ccccc4)n2)CO3)cc1
EC50 (HT-29): 0.0035 µM | CC50 [1]: > 100 µM

CN1C(=O)[C@@H](NC(=O)c2n[nH]c(Cc3ccccc3)n2)COc2ccc(-c3cccc(C#N)c3)cc21
EC50 (HT-29): 0.0083 µM | CC50 [1]: > 100 µM

COc1ccccc1-c1ccc2c(c1)N(C)C(=O)[C@@H](NC(=O)c1n[nH]c(Cc3ccccc3)n1)CO2
EC50 (HT-29): 0.01 µM | CC50 [1]: > 100 µM

CN1C(=O)[C@@H](NC(=O)c2n[nH]c(Cc3ccccc3)n2)COc2ccc(-c3ccccc3C#N)cc21
EC50 (HT-29): 0.003 µM | CC50 [1]: > 100 µM
